From publication PMC3088120 (ACS medicinal chemistry letters, 2011)

Experiments:
[1] = system: E. coli and S. aureus DNA gyrase; details: in vitro; cited from earlier work
[2] = biological target: E. coli DNA gyrase (Escherichia coli, UniProt P0AES4+P0AES6); assay: in vitro dsDNA break; format: biochemical; details: 1 tested at ≤3.3 mM
Sequence of E. coli DNA gyrase (P0AES4 whole entry, one chain of several): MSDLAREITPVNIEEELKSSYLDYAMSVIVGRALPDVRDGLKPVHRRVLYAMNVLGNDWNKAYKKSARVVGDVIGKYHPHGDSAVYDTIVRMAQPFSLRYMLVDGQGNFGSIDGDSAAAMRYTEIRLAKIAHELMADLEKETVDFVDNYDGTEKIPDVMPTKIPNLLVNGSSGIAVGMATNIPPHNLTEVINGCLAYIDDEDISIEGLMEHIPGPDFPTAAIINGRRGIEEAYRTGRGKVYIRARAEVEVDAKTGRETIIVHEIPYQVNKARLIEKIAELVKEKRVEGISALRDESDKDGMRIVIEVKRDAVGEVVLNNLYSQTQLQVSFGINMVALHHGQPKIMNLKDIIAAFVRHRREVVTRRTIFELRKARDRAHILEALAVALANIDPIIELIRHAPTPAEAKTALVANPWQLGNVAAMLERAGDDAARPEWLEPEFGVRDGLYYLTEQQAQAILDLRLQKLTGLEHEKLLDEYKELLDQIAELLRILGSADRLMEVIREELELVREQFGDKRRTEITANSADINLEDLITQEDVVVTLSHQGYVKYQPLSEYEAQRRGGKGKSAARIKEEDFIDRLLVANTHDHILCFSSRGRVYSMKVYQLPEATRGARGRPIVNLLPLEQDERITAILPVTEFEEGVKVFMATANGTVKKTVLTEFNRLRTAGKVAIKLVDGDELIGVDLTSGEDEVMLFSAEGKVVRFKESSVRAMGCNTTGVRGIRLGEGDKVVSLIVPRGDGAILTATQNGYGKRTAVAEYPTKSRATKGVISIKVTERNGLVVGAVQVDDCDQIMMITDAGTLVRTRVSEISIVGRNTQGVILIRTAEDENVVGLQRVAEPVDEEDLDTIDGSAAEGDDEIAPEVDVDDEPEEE

SMILES	release of dsDNA ends [1]	generation of dsDNA breaks / linearized DNA [2]
COc1ccc2ncc(F)c([C@@H](O)CC[C@@H]3CCN(CCSc4cccs4)C[C@@H]3C(=O)O)c2c1 [NXL101]	does not release dsDNA ends	–
O=C(O)c1cn(C2CC2)c2cc(N3CCNCC3)c(F)cc2c1=O [ciprofloxacin]	–	production of dsDNA breaks
